Legend:
[1] = molecular target: T1, NRH:quinone oxidoreductase 2 (NQO2, QR2) (Homo sapiens, UniProt P16083); assay: co-crystal structure; format: binding
T1 sequence (P16083 1-231): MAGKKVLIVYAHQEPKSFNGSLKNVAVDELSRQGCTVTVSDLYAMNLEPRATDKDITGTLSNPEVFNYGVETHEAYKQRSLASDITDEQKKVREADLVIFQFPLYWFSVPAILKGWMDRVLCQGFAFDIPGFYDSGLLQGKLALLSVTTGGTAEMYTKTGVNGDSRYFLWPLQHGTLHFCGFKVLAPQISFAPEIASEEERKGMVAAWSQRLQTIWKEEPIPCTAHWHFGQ

[2] = molecular target: NQO1 (QR1) (Homo sapiens, UniProt P15559); assay: recombinant human NQO1 activity after treatment with […] compound ± NADH; format: biochemical
Chain of NQO1 (QR1) (P15559 whole entry): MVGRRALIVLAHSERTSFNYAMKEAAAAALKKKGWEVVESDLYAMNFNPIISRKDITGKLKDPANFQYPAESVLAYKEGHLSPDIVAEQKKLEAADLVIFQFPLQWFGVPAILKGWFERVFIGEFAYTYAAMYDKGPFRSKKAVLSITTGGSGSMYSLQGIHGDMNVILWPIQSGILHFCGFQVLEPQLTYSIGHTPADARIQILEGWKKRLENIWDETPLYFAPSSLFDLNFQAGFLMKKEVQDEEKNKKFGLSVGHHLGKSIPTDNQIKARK

| Kd [1] | partition ratio [2] | SMILES |
| --- | --- | --- |
| Kd1 = 71; Kd2 = 19 μM | – | Cc1c(COc2ccc([N+](=O)[O-])cc2)c2c(n1C)C(=O)C=C(NCCCCN)C2=O [2c, 5-(4-Aminobutyl)amino-1,2-dimethyl-3-(4-nitrophenoxy)methylindole-4,7-dione] |
| – | 3.5 (partition ratio) | COC1=CC(=O)c2c(c(COc3ccc([N+](=O)[O-])cc3)c(C)n2C)C1=O [1a, 5-methoxy-1,2-dimethyl-3-(4-nitrophenoxymethyl)indole-4,7-dione] |

— paper PMC3880221 (Chembiochem : a European journal of chemical biology, 2011)
